These results are taken from patent publication US20260108527A1, “POLO LIKE KINASE 4 INHIBITORS” (ORIC Pharmaceuticals, Inc., priority 2022, published 2026).

One assay has as its target T1, human recombinant PLK4 (Homo sapiens, UniProt O00444).
T1 construct: purchased ThermoFisher PV6396
T1 sequence (O00444 1-970): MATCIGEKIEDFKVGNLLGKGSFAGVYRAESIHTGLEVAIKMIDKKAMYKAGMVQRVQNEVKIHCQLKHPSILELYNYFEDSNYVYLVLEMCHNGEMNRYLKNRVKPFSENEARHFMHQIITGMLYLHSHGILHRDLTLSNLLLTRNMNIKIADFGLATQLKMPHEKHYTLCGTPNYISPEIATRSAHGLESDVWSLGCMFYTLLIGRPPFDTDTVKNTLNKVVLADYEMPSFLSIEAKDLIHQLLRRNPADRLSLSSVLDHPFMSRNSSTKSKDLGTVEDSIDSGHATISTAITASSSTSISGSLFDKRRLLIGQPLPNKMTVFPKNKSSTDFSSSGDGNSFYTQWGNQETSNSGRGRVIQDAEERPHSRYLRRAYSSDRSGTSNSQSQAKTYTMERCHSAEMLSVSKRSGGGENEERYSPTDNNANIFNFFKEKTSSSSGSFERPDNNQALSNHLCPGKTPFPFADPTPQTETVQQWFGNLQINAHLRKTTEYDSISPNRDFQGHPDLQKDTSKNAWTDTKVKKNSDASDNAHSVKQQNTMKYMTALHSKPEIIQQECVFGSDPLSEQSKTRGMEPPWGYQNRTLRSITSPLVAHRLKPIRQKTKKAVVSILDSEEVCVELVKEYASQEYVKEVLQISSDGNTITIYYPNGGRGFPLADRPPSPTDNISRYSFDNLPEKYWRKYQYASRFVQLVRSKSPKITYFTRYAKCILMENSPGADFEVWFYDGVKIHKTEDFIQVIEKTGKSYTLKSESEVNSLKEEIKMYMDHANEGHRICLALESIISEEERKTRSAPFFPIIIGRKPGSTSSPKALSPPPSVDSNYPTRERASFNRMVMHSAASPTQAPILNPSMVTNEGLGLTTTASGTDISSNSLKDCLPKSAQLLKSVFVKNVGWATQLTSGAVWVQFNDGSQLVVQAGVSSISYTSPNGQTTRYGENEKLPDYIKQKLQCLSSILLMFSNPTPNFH
Briefly: PLK4 Biochemical Assay (ADP-Glo). Particulars: 0.5 nM PLK4, 8.0 μM ATP, 4.7 μM MBP, 6 hours at RT. In a few lines: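 PLK4 at 1.0 nM in HEPES pH 7.5 buffer with 10 mM MgCl2, 1 mM EGTA, 1 mM DTT, preincubated 15 min at RT with compound. ADP formed quantified by ADP-Glo luminescence after ATP depletion. IC50 from four-parameter non-linear regression.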

The target of assay [1] is T2, human recombinant Aurora B (Homo sapiens, UniProt Q96GD4).
T2 construct: purchased ThermoFisher PR9210B
T2 sequence (Q96GD4 whole entry): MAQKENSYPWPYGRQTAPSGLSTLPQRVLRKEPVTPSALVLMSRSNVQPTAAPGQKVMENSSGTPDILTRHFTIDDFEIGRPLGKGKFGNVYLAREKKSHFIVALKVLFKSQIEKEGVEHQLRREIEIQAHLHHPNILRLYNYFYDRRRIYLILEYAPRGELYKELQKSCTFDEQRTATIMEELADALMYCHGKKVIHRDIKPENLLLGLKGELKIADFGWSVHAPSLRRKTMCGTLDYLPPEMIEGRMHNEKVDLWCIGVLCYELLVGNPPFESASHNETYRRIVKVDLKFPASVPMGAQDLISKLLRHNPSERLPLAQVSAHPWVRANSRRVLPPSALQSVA
As to the kind of experiment: Aurora B Kinase Biochemical Assay (ADP-Glo). The settings on record: selectivity ratio; Aurora B 10 nM, 114 μM ATP. In a few lines:
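Aurora B (10 nM) was pre-incubated with compound for 15 min, then reacted with 114 μM ATP and 4.7 μM MBP for 2 h at RT in 50 mM HEPES pH 7.5, 10 mM MgCl2, 1 mM DTT. ADP was read by ADP-Glo luminescence, and IC50 values came from four-parameter fits of 11-point, 3-fold titrations in duplicate.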
(In general: ADP-Glo first removes unused ATP, then detects ADP through luciferase.)

What is called IC50 is the midpoint of a concentration-inhibition curve. As to `CCOc1cnc(-c2nccs2)cc1Nc1n[nH]c2cc([C@@H]3C[C@@]34C(=O)Nc3ccc(OC)cc34)ccc12` [Example 34, (1R,2S)-2-(3-{[5-ethoxy-2-(1,3-thiazol-2-yl)pyridin-4-yl]amino}-1H-indazol-6-yl)-5′-methoxyspiro[cyclopropane-1,3′-indol]-2′(1′H)-one], the IC50 at human recombinant PLK4 was determined as 1070 pM. Also, the “[Aurora B IC50 (nM)]/[PLK4 IC50 (nM)]” value in assay [1] is reported as 46598.3224.
In the same order, the values of `CCOc1ncc(-c2nccs2)nc1Nc1n[nH]c2cc([C@@H]3C[C@@]34C(=O)Nc3ccc(OC)cc34)ccc12` [Example 35, (1R,2S)-2-(3-{[3-ethoxy-6-(1,3-thiazol-2-yl)pyrazin-2-yl]amino}-1H-indazol-6-yl)-5′-methoxyspiro[cyclopropane-1,3′-indol]-2′(1′H)-one] are 338 pM and 2740.5325.
In the same order, the values of `CCOc1ccc(-c2cnn(C)c2)cc1Nc1n[nH]c2cc([C@@H]3C[C@@]34C(=O)Nc3ccc(OC)cc34)ccc12` [Example 37, (1R,2S)-2-{3-[2-ethoxy-5-(1-methyl-1H-pyrazol-4-yl)anilino]-1H-indazol-6-yl}-5′-methoxyspiro[cyclopropane-1,3′-indol]-2′(1′H)-one] are 1800 pM and 27839.6436.
On to `CCOc1cc(-n2cncn2)cnc1Nc1n[nH]c2cc([C@@H]3C[C@@]34C(=O)Nc3ccc(OC)cc34)ccc12` [Example 38, (1R,2S)-2-(3-{[3-ethoxy-5-(1H-1,2,4-triazol-1-yl)pyridin-2-yl]amino}-1H-indazol-6-yl)-5′-methoxyspiro[cyclopropane-1,3′-indol]-2′(1′H)-one], for which, at human recombinant PLK4, the IC50 stood at 817 pM. For the same molecule, in assay [1], the “[Aurora B IC50 (nM)]/[PLK4 IC50 (nM)]” value worked out at 559.1.
Consider `COc1ccc2c(c1)[C@]1(C[C@H]1c1ccc3c(Nc4cc(-c5cnn(CC(F)F)c5)ccc4OC)n[nH]c3c1)C(=O)N2` [Example 39, (1R,2S)-2-(3-{5-[1-(2,2-difluoroethyl)-1H-pyrazol-4-yl]-2-methoxyanilino}-1H-indazol-6-yl)-5′-methoxyspiro[cyclopropane-1,3′-indol]-2′(1′H)-one], for which, at human recombinant PLK4, the IC50 stood at 1930 pM. Moreover, in assay [1], the “[Aurora B IC50 (nM)]/[PLK4 IC50 (nM)]” value is 764.1.
For `COc1ccc2c(c1)[C@]1(C[C@H]1c1ccc3c(Nc4nc(-c5cnco5)ncc4OC)n[nH]c3c1)C(=O)N2` [Example 40, (1R,2S)-5′-methoxy-2-(3-{[5-methoxy-2-(1,3-oxazol-5-yl)pyrimidin-4-yl]amino}-1H-indazol-6-yl)spiro[cyclopropane-1,3′-indol]-2′(1′H)-one] the same measures were 280 pM and 410.7334.
In the same order, the values of `CCOc1ncc(-c2nccs2)cc1Nc1n[nH]c2cc([C@@H]3C[C@@]34C(=O)Nc3ccc(OC)cc34)ccc12` [Example 41, (1R,2S)-2-(3-{[2-ethoxy-5-(1,3-thiazol-2-yl)pyridin-3-yl]amino}-1H-indazol-6-yl)-5′-methoxyspiro[cyclopropane-1,3′-indol]-2′(1′H)-one] are 722 pM and 8707.7562.
In the same order, the values of `COc1ccc2c(c1)[C@]1(C[C@H]1c1ccc3c(Nc4cc(-c5cocn5)cnc4OC)n[nH]c3c1)C(=O)N2` [Example 42, (1R,2S)-5′-methoxy-2-(3-{[2-methoxy-5-(1,3-oxazol-4-yl)pyridin-3-yl]amino}-1H-indazol-6-yl)spiro[cyclopropane-1,3′-indol]-2′(1′H)-one] are 1310 pM and 465.6990.
For `CCOc1cnc(-c2nccs2)nc1Nc1n[nH]c2cc([C@@H]3C[C@@]34C(=O)Nc3ccc(OC)cc34)ccc12` [Example 44, (1R,2S)-2-(3-{[5-ethoxy-2-(1,3-thiazol-2-yl)pyrimidin-4-yl]amino}-1H-indazol-6-yl)-5′-methoxyspiro[cyclopropane-1,3′-indol]-2′(1′H)-one], the IC50 on human recombinant PLK4 stood at 160 pM. The “[Aurora B IC50 (nM)]/[PLK4 IC50 (nM)]” value in assay [1] stood at 844.375.
Consider `CCOc1cnc(C#CC(C)(C)O)nc1Nc1n[nH]c2cc([C@@H]3C[C@@]34C(=O)Nc3ccc(OC)cc34)ccc12` [Example 45, (1R,2S)-2-(3-((5-ethoxy-2-(3-hydroxy-3-methylbut-1-yn-1-yl)pyrimidin-4-yl)amino)-1H-indazol-6-yl)-5′-methoxyspiro[cyclopropane-1,3′-indolin]-2′-one], for which, on human recombinant PLK4, the IC50 came out at 139 pM. Moreover, the “[Aurora B IC50 (nM)]/[PLK4 IC50 (nM)]” value in assay [1] is 8798.5611.
For `COc1ccc2c(c1)[C@]1(C[C@H]1c1ccc3c(Nc4cc(-c5cnn(CC(F)F)c5)cnc4OC)n[nH]c3c1)C(=O)N2` [Example 46, (1R,2S)-2-(3-((5-(1-(2,2-difluoroethyl)-1H-pyrazol-4-yl)-2-methoxypyridin-3-yl)amino)-1H-indazol-6-yl)-5′-methoxyspiro[cyclopropane-1,3′-indolin]-2′-one] the same measures were 1250 pM and 469.6557.
